Data as given in ChEMBL document CHEMBL1201862, “PubChem BioAssay data set” (2004).
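A five-concentration, 48-hour dose response in 96-well plates underlies each endpoint, interpolated linearly between surrounding concentrations. Abbreviation: GI50, concentration required for 50% inhibition of growth.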 The source made the active and inactive calls. No stated cut-off is given here; in the data, active = GI50 up to about 1.1 µM and inactive = higher.

Legend:
Assay in all cases: growth of human tumour cells (NCI), 48 h
A498 = system: A498
EKVX = system: EKVX
HCT-116 = system: HCT-116
HT-29 = system: HT-29
Hs-578T = system: Hs-578T
KM12 = system: KM12
MOLT-4 = system: MOLT-4
Malme-3M = system: Malme-3M
NCI-H23 = system: NCI-H23
NCI/ADR-RES = system: NCI/ADR-RES
PC-3 = system: PC-3
RPMI-8226 = system: RPMI-8226
SF-268 = system: SF-268
SK-MEL-5 = system: SK-MEL-5
SK-OV-3 = system: SK-OV-3
SR = system: SR
TK-10 = system: TK-10
UACC-257 = system: UACC-257
UACC-62 = system: UACC-62
MDA-N = system: MDA-N

Structure (SMILES) | GI50 (A498) | GI50 (EKVX) | GI50 (HCT-116) | GI50 (HT-29) | GI50 (Hs-578T) | GI50 (KM12) | GI50 (MOLT-4) | GI50 (Malme-3M) | GI50 (NCI-H23) | GI50 (NCI/ADR-RES) | GI50 (PC-3) | GI50 (RPMI-8226) | GI50 (SF-268) | GI50 (SK-MEL-5) | GI50 (SK-OV-3) | GI50 (SR) | GI50 (TK-10) | GI50 (UACC-257) | GI50 (UACC-62) | GI50 (MDA-N)
CCCc1cn2c(/C=N/NC(=N)N)c(-c3ccc([N+](=O)[O-])cc3)nc2s1 | 5.26 µM (inactive) | 1.95 µM (inactive) | 0.377 µM (active) | 0.275 µM (active) | 2.33 µM (inactive) | 1.52 µM (inactive) | 0.231 µM (active) | 2.5 µM (inactive) | 1.61 µM (inactive) | 1.89 µM (inactive) | 2.01 µM (inactive) | 0.45 µM (active) | 2.16 µM (inactive) | 5.81 µM (inactive) | 1.79 µM (inactive) | 0.245 µM (active) | 1.81 µM (inactive) | 1.73 µM (inactive) | 1.82 µM (inactive) | 
CC12CCC(CC1(Cl)Cl)C2 (centres undefined) |  | > 100 µM (inactive) |  | > 100 µM (inactive) | > 100 µM (inactive) | > 100 µM (inactive) | > 100 µM (inactive) | > 100 µM (inactive) | > 100 µM (inactive) | > 100 µM (inactive) | > 100 µM (inactive) | > 100 µM (inactive) | > 100 µM (inactive) | > 100 µM (inactive) | > 100 µM (inactive) | > 100 µM (inactive) | > 100 µM (inactive) | > 100 µM (inactive) | > 100 µM (inactive) | 
CNC(=O)NCCN1N=C(C)/C(=C\c2ccccc2)CC1=O | > 100 µM (inactive) |  | > 100 µM (inactive) | > 100 µM (inactive) |  | > 100 µM (inactive) | > 100 µM (inactive) | > 100 µM (inactive) | > 100 µM (inactive) |  |  | > 100 µM (inactive) | > 100 µM (inactive) | > 100 µM (inactive) | > 100 µM (inactive) | > 100 µM (inactive) | > 100 µM (inactive) | > 100 µM (inactive) | > 100 µM (inactive) | 
C1CCC(N=C2N(C3CCCCC3)C(=NC3CCCCC3)N2C2CCCCC2)CC1 | > 10 µM (inactive) | > 100 µM (inactive) | > 100 µM (inactive) | > 100 µM (inactive) |  | > 100 µM (inactive) | > 100 µM (inactive) | > 100 µM (inactive) | > 100 µM (inactive) |  |  | > 100 µM (inactive) | > 100 µM (inactive) | > 100 µM (inactive) | > 100 µM (inactive) | > 100 µM (inactive) | > 100 µM (inactive) | > 100 µM (inactive) | > 100 µM (inactive) | 
Cc1nc(N)nc(CCC(=O)Nc2cccc(C(F)(F)F)c2)c1-c1ccc(Cl)cc1 | > 100 µM (inactive) | > 100 µM (inactive) | > 100 µM (inactive) | > 100 µM (inactive) |  | > 100 µM (inactive) | > 100 µM (inactive) | > 100 µM (inactive) | > 100 µM (inactive) |  |  | > 100 µM (inactive) | > 100 µM (inactive) | > 100 µM (inactive) | > 100 µM (inactive) | 21.6 µM (inactive) | > 100 µM (inactive) | > 100 µM (inactive) | > 100 µM (inactive) | 
CCCCCCCCCCC(O)[C@H]1CCC(C2CC[C@H]([C@H](O)CCCCCCCCCCC(O)CC3=CC(C)OC3=O)O2)O1 (some centres undefined) | 2.17 µM (inactive) | 1.23 µM (inactive) | 1.94 µM (inactive) | 1.55 µM (inactive) | 1.7 µM (inactive) | 1.47 µM (inactive) | 2.47 µM (inactive) | 1.39 µM (inactive) | 0.0493 µM (active) | 0.211 µM (active) | 1.7 µM (inactive) | 2.21 µM (inactive) | 1.58 µM (inactive) | 0.565 µM (active) | 3.18 µM (inactive) | 1.9 µM (inactive) | 1.59 µM (inactive) | 1.27 µM (inactive) | 1.45 µM (inactive) | 
Cc1cc(=O)c2cc(/N=C/c3ccc([N+](=O)[O-])o3)ccc2o1 | > 100 µM (inactive) | > 100 µM (inactive) | 32.5 µM (inactive) | > 100 µM (inactive) | > 100 µM (inactive) | > 100 µM (inactive) | 37.4 µM (inactive) | 30 µM (inactive) | > 100 µM (inactive) | > 100 µM (inactive) |  | 35.5 µM (inactive) | 88.7 µM (inactive) | > 100 µM (inactive) | > 100 µM (inactive) | 32.7 µM (inactive) | > 100 µM (inactive) | 28.1 µM (inactive) | 56.1 µM (inactive) | 
O=C(CSCC(=O)N/N=C/c1cccc(O)c1)N/N=C/c1cccc(O)c1 | > 100 µM (inactive) | > 100 µM (inactive) | > 100 µM (inactive) | > 100 µM (inactive) | > 100 µM (inactive) | > 100 µM (inactive) | > 100 µM (inactive) | > 100 µM (inactive) | > 100 µM (inactive) | > 100 µM (inactive) | > 100 µM (inactive) | > 100 µM (inactive) | > 100 µM (inactive) | > 100 µM (inactive) | > 100 µM (inactive) | > 100 µM (inactive) | > 100 µM (inactive) | > 100 µM (inactive) | > 100 µM (inactive) | 
O=S1(=O)COc2ccccc2-c2ncncc21 | > 100 µM (inactive) | > 100 µM (inactive) | > 100 µM (inactive) | > 100 µM (inactive) |  | > 100 µM (inactive) | > 100 µM (inactive) | > 100 µM (inactive) | > 100 µM (inactive) |  |  | > 100 µM (inactive) | > 100 µM (inactive) | > 100 µM (inactive) | > 100 µM (inactive) | > 100 µM (inactive) | > 100 µM (inactive) | > 100 µM (inactive) | > 100 µM (inactive) | 
Cc1cc(C)c2c(c1)CC1(Cc3cc(C)c(C)cc3C1=O)C2=O (centres undefined) | > 100 µM (inactive) | > 100 µM (inactive) |  |  | 56.6 µM (inactive) | > 100 µM (inactive) | > 100 µM (inactive) | 4.75 µM (inactive) |  | > 100 µM (inactive) | > 100 µM (inactive) | > 100 µM (inactive) | > 100 µM (inactive) | > 100 µM (inactive) |  | 14.7 µM (inactive) | > 100 µM (inactive) | > 100 µM (inactive) | > 100 µM (inactive) | 
CCC(Oc1ccc(OC)c2c1C(=O)CCC2)C(=O)O (centres undefined) | > 100 µM (inactive) | > 100 µM (inactive) |  | > 100 µM (inactive) |  | > 100 µM (inactive) | > 100 µM (inactive) | > 100 µM (inactive) | > 100 µM (inactive) |  |  | > 100 µM (inactive) | > 100 µM (inactive) | > 100 µM (inactive) | > 100 µM (inactive) | > 100 µM (inactive) | > 100 µM (inactive) | > 100 µM (inactive) | > 100 µM (inactive) | 
CCCCCCNc1n[nH]c(=O)c2c1nnn2Cc1ccccc1 |  | > 100 µM (inactive) | > 100 µM (inactive) | > 100 µM (inactive) |  | > 100 µM (inactive) | > 100 µM (inactive) | > 100 µM (inactive) | > 100 µM (inactive) | > 100 µM (inactive) | > 100 µM (inactive) | > 100 µM (inactive) |  | > 100 µM (inactive) |  | > 100 µM (inactive) | > 100 µM (inactive) | > 100 µM (inactive) |  | > 100 µM (inactive)
Oc1nnc(CNc2ccc(Cl)cc2Cl)c2ccccc12 | 8.24 µM (inactive) | 36.2 µM (inactive) | 22.8 µM (inactive) | 31.8 µM (inactive) |  | 39.3 µM (inactive) | 31.5 µM (inactive) | 23.6 µM (inactive) |  |  |  | 58.2 µM (inactive) | 19.9 µM (inactive) | 19.7 µM (inactive) | 18.9 µM (inactive) | 32.7 µM (inactive) | 20.7 µM (inactive) | 33.4 µM (inactive) | 27.5 µM (inactive) | 
CCCCC(=O)Nc1ccc2c(C)cc(-c3ccc(-c4cc(-c5ccc(C)cc5)cc(-c5ccc(-c6cc(C)c7ccc(NC(=O)CCCC)nc7n6)cc5)n4)cc3)nc2n1 | > 100 µM (inactive) | > 100 µM (inactive) | > 100 µM (inactive) |  |  | > 100 µM (inactive) | > 100 µM (inactive) | > 100 µM (inactive) | > 100 µM (inactive) | > 100 µM (inactive) | > 100 µM (inactive) | > 100 µM (inactive) | > 100 µM (inactive) | > 100 µM (inactive) | > 100 µM (inactive) |  | > 100 µM (inactive) | > 100 µM (inactive) | > 100 µM (inactive) | > 100 µM (inactive)
Cc1ccc(Nc2nc(O)c3[nH]cnc3n2)cc1CO |  | 14.8 µM (inactive) | 12.1 µM (inactive) | 8.87 µM (inactive) | 21.2 µM (inactive) | 8.81 µM (inactive) | 15.5 µM (inactive) | 16.5 µM (inactive) | 17.7 µM (inactive) | 15.4 µM (inactive) | 12.8 µM (inactive) | 10.7 µM (inactive) | 20.7 µM (inactive) | 16.5 µM (inactive) | 13.5 µM (inactive) | 14 µM (inactive) | 18 µM (inactive) | 17.3 µM (inactive) | 13 µM (inactive) | 
CNC(=O)c1cc2nc3ccccc3c(=O)n2c2ccccc12 | > 10 µM (inactive) | > 10 µM (inactive) | > 10 µM (inactive) | > 10 µM (inactive) | > 10 µM (inactive) | > 10 µM (inactive) | > 10 µM (inactive) | > 10 µM (inactive) | > 10 µM (inactive) | > 10 µM (inactive) | > 10 µM (inactive) | > 10 µM (inactive) | > 10 µM (inactive) | > 10 µM (inactive) | > 10 µM (inactive) | > 10 µM (inactive) | > 10 µM (inactive) | > 10 µM (inactive) | > 10 µM (inactive) | 
